Like-named read-outs stand apart in the source and are kept apart here.

The assay concerns NCI-H1975 (EGFR-L858R-T790M) cells. Nature of the assay: Inhibitory activity on proliferation of NCI-H1975 (EGFR-L858R-T790M) cells (CTG, 72 h). The format is cell-based. The following applies: Homo sapiens. On the procedure:
NCI-H1975 (EGFR-L858R-T790M) and A431 (EGFR-WT) cells were purchased from ATCC and cultured in an incubator at 37° C. with 5% CO2, and the culture mediums were RPMI1640+10% FBS and DMEM+10% FBS, respectively. On the first day, NCI-H1975 (EGFR-L858R-T790M) and A431 (EGFR-WT) cells in the logarithmic phase were collected, and viable cells were counted using an automatic cell analyzer (countstar). The cell suspensions were adjusted with the culture mediums and plated on a 96-well cell culture plate at 1000 cells/well for NCI-H1975 (EGFR-L858R-T790M) cells and at 3000 cells/well for A431 cells. The next day, the culture mediums were aspirated, and 90 μL of fresh culture mediums and 10 μL of the compounds at different concentrations were added to each well, wherein the final concentration of DMSO in each well was 0.1%. The plate was cultured in the incubator at 37° C. with 5% CO2 for 72 hours. After 72 hours of drug treatment, 50 μL of CTG solution (promega, G7572), which was already pre-melted and equilibrated to room temperature, was added to each well, and the mixtures were uniformly mixed for 2 min using a microplate shaker. The plate was placed at room temperature for 10 min, and then […] signal values were measured using a microplate reader (PHERAstar FSX).
Surviving cells % was calculated based on Vsample/Vvehicle control×100%, wherein Vsample was the readout of the drug-treated group, and Vvehicle control was the average value of the vehicle control group. Using the origin 9.2 software and nonlinear regression model, S-shaped dose-survival curves were plotted, and IC50 values were calculated.

The mark [1] stands for this setting: read-out: IC50 (value in brackets).

The IC50 is the concentration that gives 50% inhibition. With `COc1cc(N2CCC3(CCN(CC4CCN(c5cc6c(cc5F)C(=O)N(C5CCC(=O)NC5=O)C6=O)CC4)CC3)CC2)c(-c2cnn(C)c2)cc1Nc1ncc(Cl)c(Nc2ccc(-c3ccccc3)cc2P(C)(C)=O)n1` (stereo not shown) [Compound 51, 5-(4-((9-(4-((5-chloro-4-((3-(dimethylphosphoryl)-[1,1′-biphenyl]-4-yl)amino)pyrimidin-2-yl)amino)-5-methoxy-2-(1-methyl-1H-pyrazol-4-yl)phenyl)-3,9-diazaspiro[5.5]undecan-3-yl)methyl)piperidin-1-yl)-2-(2,6-dioxopiperidin-3-yl)-6-fluoroisoindoline-1,3-dione], the IC50 reads like this: (read-out: IC50 (class symbol)) under 0.1 µM; under setting [1], 0.072 µM.

As for `COc1cc(N2CCC(CN3CCC4(CC3)CCN(c3cc5c(cc3F)C(=O)N(C3CCC(=O)NC3=O)C5=O)CC4)CC2)c(-c2cnn(C)c2)cc1Nc1ncc(Cl)c(Nc2ccc(-c3ccccc3)cc2P(C)(C)=O)n1` (stereo not shown) [Compound 52, 5-(9-((1-(4-((5-chloro-4-((3-(dimethylphosphoryl)-[1,1′-biphenyl]-4-yl)amino)pyrimidin-2-yl)amino)-5-methoxy-2-(1-methyl-1H-pyrazol-4-yl)phenyl)piperidin-4-yl)methyl)-3,9-diazaspiro[5.5]undecan-3-yl)-2-(2,6-dioxopiperidin-3-yl)-6-fluoroisoindoline-1,3-dione], the IC50 by setting is: (read-out: IC50 (class symbol)) under 0.1 µM; under setting [1], 0.084 µM.

As for `COc1cc(N2CCC(N3CCC(CN4CCN(c5ccc6c(c5)C(=O)N(C5CCC(=O)NC5=O)C6=O)CC4)CC3)CC2)c(-c2cnn(C)c2)cc1Nc1ncc(Cl)c(Nc2ccc(-c3ccccc3)cc2P(C)(C)=O)n1` (stereo not shown) [Compound 53, 5-(4-((1′-(4-((5-chloro-4-((3-(dimethylphosphoryl)-[1,1′-biphenyl]-4-yl)amino)pyrimidin-2-yl)amino)-5-methoxy-2-(1-methyl-1H-pyrazol-4-yl)phenyl)-[1,4′-bipiperidin]-4-yl)methyl)piperazin-1-yl)-2-(2,6-dioxopiperidin-3-yl)isoindoline-1,3-dione], the IC50 by setting is: (read-out: IC50 (class symbol)) 0.1 to 0.5 µM; under setting [1], 0.182 µM.

As to `COc1cc(N2CCC(CN3CCN(c4ccc(C(=O)NC5CCC(=O)NC5=O)nc4)CC3)CC2)c(-c2cnn(C)c2)cc1Nc1ncc(Br)c(Nc2ccc(-c3ccccc3)cc2P(C)(C)=O)n1` (stereo not shown) [Compound 64, 5-(4-((1-(4-((5-bromo-4-((3-(dimethylphosphoryl)-[1,1′-biphenyl]-4-yl)amino)pyrimidin-2-yl)amino)-5-methoxy-2-(1-methyl-1H-pyrazol-4-yl)phenyl)piperidin-4-yl)methyl)piperazin-1-yl)-N-(2,6-dioxopiperidin-3-yl)picolinamide], the concentration for half-maximal inhibition (IC50) is under 0.1 µM (read-out: IC50 (class symbol)) and 0.082 µM under setting [1].

`COc1cc(N2CCC(CN3CCC4(CC3)CCN(c3ccc(C(=O)NC5CCC(=O)NC5=O)nc3)CC4)CC2)c(-c2cnn(C)c2)cc1Nc1ncc(Br)c(Nc2ccc(-c3ccccc3)cc2P(C)(C)=O)n1` (stereo not shown) [Compound 69, 5-(9-((1-(4-((5-bromo-4-((3-(dimethylphosphoryl)-[1,1′-biphenyl]-4-yl)amino)pyrimidin-2-yl)amino)-5-methoxy-2-(1-methyl-1H-pyrazol-4-yl)phenyl)piperidin-4-yl)methyl)-3,9-diazaspiro[5.5]undecan-3-yl)-N-(2,6-dioxopiperidin-3-yl)picolinamide]: the half-maximal inhibitory concentration (IC50) is under 0.1 µM (read-out: IC50 (class symbol)) and 0.034 µM under setting [1].

As for `COc1cc(N2CCC(CN3CCC4(CC3)CCN(c3ccc(C(=O)NC5CCC(=O)NC5=O)nc3)CC4)CC2)c(-c2cnn(C)c2)cc1Nc1ncc(Cl)c(Nc2ccc(-c3ccccc3)cc2P(C)(C)=O)n1` (stereo not shown) [Compound 70, 5-(9-((1-(4-((5-chloro-4-((3-(dimethylphosphoryl)-[1,1′-biphenyl]-4-yl)amino)pyrimidin-2-yl)amino)-5-methoxy-2-(1-methyl-1H-pyrazol-4-yl)phenyl)piperidin-4-yl)methyl)-3,9-diazaspiro[5.5]undecan-3-yl)-N-(2,6-dioxopiperidin-3-yl)picolinamide], the IC50 by setting is: (read-out: IC50 (class symbol)) under 0.1 µM; under setting [1], 0.039 µM.

`COc1cc(N2CCN(Cc3cccc(NC4CCC(=O)NC4=O)c3)CC2)c(-c2cnn(C)c2)cc1Nc1ncc(Br)c(Nc2ccc(-c3ccccc3)cc2P(C)(C)=O)n1` (stereo not shown) [Compound 74, 3-((3-((4-(4-((5-bromo-4-((3-(dimethylphosphoryl)-[1,1′-biphenyl]-4-yl)amino)pyrimidin-2-yl)amino)-5-methoxy-2-(1-methyl-1H-pyrazol-4-yl)phenyl)piperazin-1-yl)methyl)phenyl)amino)piperidine-2,6-dione]: the IC50 runs as follows: (read-out: IC50 (class symbol)) 0.1 to 0.5 µM; under setting [1], 0.313 µM.

In the case of `COc1cc(N2CCC3(CC2)CN(CC2CCN(c4cc5c(cc4F)C(=O)N(C4CCC(=O)NC4=O)C5=O)CC2)C3)c(-c2cnn(C)c2)cc1Nc1ncc(Cl)c(Nc2ccc(-c3ccccc3)cc2P(C)(C)=O)n1` (stereo not shown) [Compound 94, 5-(4-((7-(4-((5-chloro-4-((3-(dimethylphosphoryl)-[1,1′-biphenyl]-4-yl)amino)pyrimidin-2-yl)amino)-5-methoxy-2-(1-methyl-1H-pyrazol-4-yl)phenyl)-2,7-diazaspiro[3.5]nonan-2-yl)methyl)piperidin-1-yl)-2-(2,6-dioxopiperidin-3-yl)-6-fluoroisoindoline-1,3-dione], the half-inhibitory concentration (IC50) by setting is: (read-out: IC50 (class symbol)) under 0.1 µM; under setting [1], 0.077 µM.

On to `COc1cc(N2CCC(N3CCN(c4ccc5c(c4)C(=O)N(C4CCC(=O)NC4=O)C5=O)CC3)CC2)c(-c2cnn(C)c2)cc1Nc1ncc(Br)c(Nc2ccccc2P(C)(C)=O)n1` (stereo not shown) [Compound 114, 5-(4-(1-(4-((5-bromo-4-((2-(dimethylphosphoryl)phenyl)amino)pyrimidin-2-yl)amino)-5-methoxy-2-(1-methyl-1H-pyrazol-4-yl)phenyl)piperidin-4-yl)piperazin-1-yl)-2-(2,6-dioxopiperidin-3-yl)isoindoline-1,3-dione], for which the half-maximal inhibitory concentration (IC50) (read-out: IC50 (class symbol)) is under 0.1 µM and the concentration for half-maximal inhibition (IC50) under setting [1] is 0.06 µM.

In the case of `COc1cc(N2CCC(N3CCN(c4ccc5c(c4)C(=O)N(C4CCC(=O)NC4=O)C5=O)CC3)CC2)c(-c2cnn(C)c2)cc1Nc1ncc(Cl)c(Nc2ccccc2P(C)(C)=O)n1` (stereo not shown) [Compound 115, 5-(4-(1-(4-((5-chloro-4-((2-(dimethylphosphoryl)phenyl)amino)pyrimidin-2-yl)amino)-5-methoxy-2-(1-methyl-1H-pyrazol-4-yl)phenyl)piperidin-4-yl)piperazin-1-yl)-2-(2,6-dioxopiperidin-3-yl)isoindoline-1,3-dione], the 50% inhibitory concentration (IC50) runs as follows: (read-out: IC50 (class symbol)) under 0.1 µM; under setting [1], 0.073 µM.

On to `COc1cc(N2CCN(C[C@H]3CCN(c4ccc5c(c4)C(=O)N(C4CCC(=O)NC4=O)C5=O)C3)CC2)c(-c2cnn(C)c2)cc1Nc1ncc(Cl)c(Nc2ccccc2P(C)(C)=O)n1` (stereo partly drawn) [Compound 120, 5-((R)-3-((4-(4-((5-chloro-4-((2-(dimethylphosphoryl)phenyl)amino)pyrimidin-2-yl)amino)-5-methoxy-2-(1-methyl-1H-pyrazol-4-yl)phenyl)piperazin-1-yl)methyl)pyrrolidin-1-yl)-2-(2,6-dioxopiperidin-3-yl)isoindoline-1,3-dione], for which the half-inhibitory concentration (IC50) is, setting by setting: (read-out: IC50 (class symbol)) under 0.1 µM; under setting [1], 0.025 µM.

These data come from patent US20240269298A1, “PHOSPHONYL DERIVATIVE, AND COMPOSITION AND PHARMACEUTICAL APPLICATION THEREOF” (XIZANG HAISCO PHARMACEUTICAL CO., LTD., priority 2021, published 2024).
